ChEMBL document CHEMBL5120779, “Thiazolidinedione-Based Structure Modification of Celastrol Provides Thiazolidinedione-Conjugated Derivatives as Potent Agents against Non-Small-Cell Lung Cancer Cells through a Mitochondria-Mediated Apoptotic Pathway” (J Nat Prod, 2022)
Activity calls are given as the source filed them. No cut-off for these calls is given here.

Key:
A549 [1] = assay: Induction of apoptosis in human A549 cells assessed as late apoptotic cells at 0.5 uM incubated for 48 hrs by Annexin V-FITC/propidium iodide staining based flow cytometry (reference value: 0.82%); type: functional
A549 [2] = assay: Induction of apoptosis in human A549 cells assessed as late apoptotic cells at 0.125 uM incubated for 48 hrs by Annexin V-FITC/propidium iodide staining based flow cytometry (reference value: 0.82%); type: functional
A549 [3] = assay: Induction of apoptosis in human A549 cells assessed as decrease in Bcl-2 protein expression at 0.25 to 4 uM incubated for 48 hrs by western blot analysis; type: functional, cell-based; details: dose 0.25-4 µM
A549 [4] = assay: Induction of apoptosis in human A549 cells assessed as increase in cleaved caspase-3 expression incubated for 48 hrs by western blot analysis; type: functional, cell-based; details: dose 0.25-4 µM, DDE = dose-dependent effect
A549 [5] = assay: Induction of apoptosis in human A549 cells assessed as increase in cleaved caspase-8 expression at 0.25 to 4 uM incubated for 48 hrs by western blot analysis; type: functional, cell-based; details: dose 0.25-4 µM
A549 [6] = assay: Anti-tumor activity against human A549 cells xenografted in BALB/c mouse assessed as reduction in tumor weight at 2 mg/kg, iv administered every 2 days for 13 days; type: functional; details: A549, 312 h, time 13 day
[7] = Stability of the compound in DMEM culture medium at 100 ug/ml measured after 72 hrs by HPLC analysis; type: physicochemical; details: at 100 µg/mL
A549 [8] = assay: Anti-tumor activity against human A549 cells xenografted in BALB/c mouse assessed as reduction in tumor weight at 8 mg/kg, iv administered every 2 days for 13 days; type: functional; details: A549, 312 h, time 13 day
A549 [9] = assay: Cytotoxicity against human A549 cells assessed as inhibition of cell proliferation at 0.125 to 2 uM by MTT assay; type: functional, cell-based; details: dose 0.125-2 µM, time 24-72 hrs, TDE = time-dependent effect
A549 [10] = assay: Potency index, ratio of celastrol IC50 to test compound IC50 for cytotoxicity against human A549 cells by MTT assay; type: functional
A549 [11] = assay: Induction of mitochondrial membrane potential depolarization in human A549 cells assessed as proportion of cells with intact mitochondria by measuring red fluorescent J-aggregates at 0.125 uM incubated for 48 hrs by JC-1 staining based flow cytometry (reference value: 63.9%); type: functional
[12] = Selectivity index, ratio of IC50 for human MRC5 cells to IC50 for human A549 cells; type: toxicity; details: MRC5 cells and A549 cells, read-out: Ratio IC50
A549 [13] = assay: Cytotoxicity against human A549 cells assessed as inhibition of cell proliferation measured after 24 to 72 hrs by MTT assay; type: functional, cell-based; details: dose 0.125-2 µM, time 24-72 hrs, DDE = dose-dependent effect
A549 [14] = assay: Induction of apoptosis in human A549 cells assessed as early apoptotic cells at 0.125 uM incubated for 48 hrs by Annexin V-FITC/propidium iodide staining based flow cytometry (reference value: 0.11%); type: functional
A549 [15] = assay: Induction of mitochondrial membrane potential depolarization in human A549 cells assessed as proportion of cells with depolarized mitochondria by measuring green fluorescent J-monomers at 0.25 uM incubated for 48 hrs by JC-1 staining based flow cytometry (reference value: 34.2%); type: functional
A549 [16] = assay: Induction of apoptosis in human A549 cells assessed as increase in cleaved PARP expression incubated for 48 hrs by western blot analysis; type: functional, cell-based; details: dose 0.25-4 µM, DDE = dose-dependent effect
A549 [17] = assay: Anti-tumor activity against human A549 cells xenografted in BALB/c mouse assessed as reduction in tumor volume at 2 to 8 mg/kg, iv administered every 2 days for 13 days; type: functional, organism-based; details: dose 2-8 mg/kg, time 13.0 day
A549 [18] = assay: Induction of apoptosis in human A549 cells assessed as early apoptotic cells at 0.25 uM incubated for 48 hrs by Annexin V-FITC/propidium iodide staining based flow cytometry (reference value: 0.11%); type: functional
A549 [19] = assay: Induction of apoptosis in human A549 cells assessed as increase in Bax protein expression at 0.25 to 4 uM incubated for 48 hrs by western blot analysis; type: functional, cell-based; details: dose 0.25-4 µM
A549 [20] = assay: Induction of mitochondrial membrane potential depolarization in human A549 cells assessed as proportion of cells with depolarized mitochondria by measuring green fluorescent J-monomers at 0.5 uM incubated for 48 hrs by JC-1 staining based flow cytometry (reference value: 34.2%); type: functional
A549 [21] = assay: Induction of apoptosis in human A549 cells assessed as necrotic cells at 0.25 uM incubated for 48 hrs by Annexin V-FITC/propidium iodide staining based flow cytometry (reference value: 3.36%); type: functional
A549 [22] = assay: Induction of apoptosis in human A549 cells assessed as nuclear fragmentation and chromatin condensation incubated for 48 hrs by Hoechst 33342 staining based fluorescence microscopic analysis; type: functional, cell-based; details: dose 0.25-0.5 µM, DDE = dose-dependent effect
A549 [23] = assay: Induction of mitochondrial membrane potential depolarization in human A549 cells assessed as proportion of cells with intact mitochondria by measuring red fluorescent J-aggregates at 0.25 uM incubated for 48 hrs by JC-1 staining based flow cytometry (reference value: 63.9%); type: functional
A549 [24] = assay: Cytotoxicity against human A549 cells assessed as inhibition of cell proliferation at 0.1 uM pretreated for 2 hrs with autophagy inhibitor, 3-methyladenine followed by incubation with compound and measured after 48 hrs by MTT assay; type: functional, cell-based
A549 [25] = assay: Anti-tumor activity against human A549 cells xenografted in iv dosed BALB/c mouse assessed as reduction in tumor growth administered every 2 days for 13 days; type: functional, organism-based; details: dose 2-8 mg/kg, time 13.0 day, DDE = dose-dependent effect
A549 [26] = assay: Induction of apoptosis in human A549 cells assessed as viable cells at 0.5 uM incubated for 48 hrs by Annexin V-FITC/propidium iodide staining based flow cytometry (reference value: 95.7%); type: functional; details: read-out: Activity
A549 [27] = assay: Induction of mitochondrial membrane potential depolarization in human A549 cells assessed as proportion of cells with depolarized mitochondria by measuring green fluorescent J-monomers at 0.125 uM incubated for 48 hrs by JC-1 staining based flow cytometry (reference value: 34.2%); type: functional
A549 [28] = assay: Anti-tumor activity against human A549 cells xenografted in BALB/c mouse assessed as reduction in tumor weight at 4 mg/kg, iv administered every 2 days for 13 days; type: functional; details: A549, 312 h, time 13 day
[29] = Toxicity in BALB/c mouse xenografted with human A549 cells assessed as body weight loss at 2 to 8 mg/kg, iv administered every 2 days for 13 days; type: organism-based; details: in vivo, 312 h, dose 2-8 mg/kg, time 13 day
[30] = Cytotoxicity against human MRC5 cells assessed as inhibition of cell growth measured after 96 hrs by MTT assay; type: toxicity, cell-based
A549 [31] = assay: Cytotoxicity against human A549 cells assessed as inhibition of cell proliferation at 0.1 uM pretreated for 2 hrs with necroptosis inhibitor, necrostatin-1 followed by incubation with compound and measured after 48 hrs by MTT assay; type: functional, cell-based
A549 [32] = assay: Induction of apoptosis in human A549 cells assessed as early apoptotic cells at 0.5 uM incubated for 48 hrs by Annexin V-FITC/propidium iodide staining based flow cytometry (reference value: 0.11%); type: functional
A549 [33] = assay: Induction of mitochondrial membrane potential depolarization in human A549 cells assessed as proportion of cells with intact mitochondria by measuring red fluorescent J-aggregates at 0.5 uM incubated for 48 hrs by JC-1 staining based flow cytometry (reference value: 63.9%); type: functional
A549 [34] = assay: Induction of apoptosis in human A549 cells assessed as increase in cleaved caspase-9 expression incubated for 48 hrs by western blot analysis; type: functional, cell-based; details: dose 0.25-4 µM, DDE = dose-dependent effect
A549 [35] = assay: Induction of apoptosis in human A549 cells assessed as necrotic cells at 0.125 uM incubated for 48 hrs by Annexin V-FITC/propidium iodide staining based flow cytometry (reference value: 3.36%); type: functional
A549 [36] = assay: Induction of apoptosis in human A549 cells assessed as viable cells at 0.25 uM incubated for 48 hrs by Annexin V-FITC/propidium iodide staining based flow cytometry (reference value: 95.7%); type: functional; details: read-out: Activity
A549 [37] = assay: Induction of apoptosis in human A549 cells assessed as late apoptotic cells at 0.25 uM incubated for 48 hrs by Annexin V-FITC/propidium iodide staining based flow cytometry (reference value: 0.82%); type: functional
A549 [38] = assay: Induction of apoptosis in human A549 cells assessed as necrotic cells at 0.5 uM incubated for 48 hrs by Annexin V-FITC/propidium iodide staining based flow cytometry (reference value: 3.36%); type: functional
A549 [39] = assay: Induction of apoptosis in human A549 cells assessed as viable cells at 0.125 uM incubated for 48 hrs by Annexin V-FITC/propidium iodide staining based flow cytometry (reference value: 95.7%); type: functional; details: read-out: Activity
A549 [40] = assay: cells; details: Homo sapiens, A549, 96 h
Description: Cytotoxicity against human A549 cells assessed as inhibition of cell growth measured after 96 hrs by MTT assay

CC1=C(O)C(=O)C=C2C1=CC=C1[C@@]2(C)CC[C@@]2(C)[C@@H]3C[C@](C)(C(=O)N4CCN(C(=O)CN5C(=O)S/C(=C\C6CC6)C5=O)CC4)CC[C@]3(C)CC[C@]12C
Activity (A549 [1]): 29.5%
Activity (A549 [2]): 7.71%
Activity (A549 [3]): Active
Activity (A549 [4]): Dde
Activity (A549 [5]): Active
inhibition in vivo at 2 mg/kg (A549 [6]): 48.8%
Stability [7]: Stable
inhibition in vivo at 8 mg/kg (A549 [8]): 69.5%
Activity (A549 [9]): Tde
Ratio IC50 (A549 [10]): 13.8
Activity (A549 [11]): 60.2%
selectivity ratio [12]: 37.8
Activity (A549 [13]): Dde
Activity (A549 [14]): 1.9%
Activity (A549 [15]): 42.3%
Activity (A549 [16]): Dde
Activity (A549 [17]): Active
Activity (A549 [18]): 2.68%
Activity (A549 [19]): Active
Activity (A549 [20]): 46.4%
Activity (A549 [21]): 5.86%
Activity (A549 [22]): Dde
Activity (A549 [23]): 56%
Activity (A549 [24]): Active
Activity (A549 [25]): Dde
viability at 0.5 µM (A549 [26]): 59.8%
Activity (A549 [27]): 38.2%
inhibition in vivo at 4 mg/kg (A549 [28]): 64.4%
Activity [29]: Non-Toxic
IC50 at 96 h [30]: 3.02 µM
Activity (A549 [31]): Active
Activity (A549 [32]): 3.73%
Activity (A549 [33]): 51.7%
Activity (A549 [34]): Dde
Activity (A549 [35]): 4.59%
viability at 0.25 µM (A549 [36]): 71.8%
Activity (A549 [37]): 19.6%
Activity (A549 [38]): 6.96%
viability at 0.125 µM (A549 [39]): 85.8%
IC50 (A549 [40]): 0.08 µM
